Patent publication US6534520B2, “Antiviral compounds” (priority 1997, dated 2003)

Legend:
[1] = system: Influenza A; assay: microbe, parasite or virus in culture; type: cell-based
[2] = system: HSV-1; assay: Antiviral activity against HSV-1 (CPE inhibition / neutral red); type: cell-based, herpes simplex virus type 1; conditions: HSV-1
[3] = system: Rhinovirus (RV); assay: Antiviral activity against Rhinovirus (CPE inhibition / neutral red); type: cell-based; conditions: Rhinovirus
[4] = system: uninfected cells
[5] = system: uninfected cells; remark: listed apart in the source
[6] = system: uninfected cells; assay: Cytotoxicity run with the Influenza B test; type: cell-based
Protocol: (§1) Methods For Assay Of Cytotoxicity
(§2) In the CPE inhibition test, two wells of uninfected cells treated with each concentration of test Compound are run in parallel with the infected, treated wells. At the time CPE is determined microscopically, the toxicity control cells are also examined microscopically for any changes in cell appearance compared to normal control cells run in the same plate. These changes may be enlargement, granularity, cells with ragged edges, a filmy appearance, rounding, detachment from the surface of the well, or other changes. These changes are given a designation of T (100% toxic), PVH (partially toxic-very heavy-80%), PH (partially toxic-heavy-60%), P (partially toxic-40%), PS (partially toxic-slight-20%), or 0 (no toxicity-0%), conforming to the degree of cytotoxicity seen.
(§3) In the neutral red dye uptake phase of the antiviral test described above, the two toxicity control wells also receive neutral red and the degree of color intensity is determined spectrophotometrically. A neutral red CC50 (NRCC50) is subsequently determined.
(§4) C. ^3H Thymidine Uptake Assay
(§5) Flat bottom 96 well plates are plated with 5X10E3 Vero-34 cells/well and 1X10E4 Hs68 or Wi-38 cells/well respectively and incubated overnight at 37° C. and 5% CO2/air. After incubation, the supernatant medium is removed and replaced with test Compound dilutions in 2% DMEM (150 ul). The cells are then incubated 48 hours in a 5% CO2 incubator at 37° C.
(§6) 50 μl/well of 10 uCi/ml solution of [3H]-methyl thymidine (specific activity of approx. 2Ci/mmol) is added to the culture medium and incubated overnight (18 hours) in a 5% CO2 incubator at 37° C.
(§7) Cells are then collected onto a fiberglass filter (Printed Filtermat A 1450-421 Wallac) with a Tomtec cell harvester. Suspended cells are collected directly onto filter while for adherent cells, the medium is first removed, then the cells washed with PBS and trypsinized for 2-3 minutes (50 μl trypsin/well) before collecting.
(§8) Filters are dried for 1 hour at 37-40° C. and then placed into bags (1450-microbeta #1450-432 Wallac) with 4.5 ml of Betascint and counts obtained with Microbeta 1450 Wallac (protocol 1).
(§9) The percent of cell proliferation is determined by comparison to the control (no test Compound) and thereby establishing 50% inhibitory concentration is established.

[7] = system: Adenovirus; assay: Antiviral activity against Adenovirus (CPE inhibition / neutral red); type: cell-based; conditions: Adenovirus
[8] = system: HSV-2; assay: Antiviral activity against HSV-2 (CPE inhibition / neutral red); type: cell-based, herpes simplex virus type 2; conditions: HSV-2
[9] = system: PBMCs; assay: Cytotoxicity in PBMCs (anti-HIV tests); type: cell-based; conditions: for HIVTEKI (PBMCs) CC50: HIVTEKI columns
[10] = system: HIVTEKI; assay: Anti-HIV activity against HIVTEKI in PBMCs; conditions: HIVTEKI, PBMCs
[11] = system: Parainfluenza; assay: Antiviral activity against Parainfluenza (CPE inhibition / neutral red); type: cell-based; conditions: Parainfluenza
[12] = system: Respiratory Syncitial Virus (RSV); assay: Antiviral activity against RSV (CPE inhibition / neutral red); type: cell-based; conditions: RSV
[13] = system: uninfected cells; remark: listed apart in the source
[14] = system: HIVROJO; assay: Anti-HIV activity against HIVROJO in PBMCs; type: cell-based; conditions: HIVROJO, PBMCs
[15] = system: uninfected cells; assay: Cytotoxicity run with the Influenza A test; type: cell-based
Protocol: as §1, §2, §3, §4, §5, §6, §7, §8, §9

[16] = system: uninfected cells; remark: listed apart in the source
[17] = system: Influenza B; assay: microbe, parasite or virus in culture; type: cell-based; conditions: Influenza B
[18] = system: uninfected cells; remark: listed apart in the source
[19] = system: uninfected cells; assay: Cytotoxicity run with the Adenovirus test; conditions: cytotoxicity, Adenovirus test
[20] = system: HCMV

CCCOc1ccccc1CNC(=O)c1ccc2cnccc2n1 [#26, N-(2-propoxybenzyl)-2-[1,6]naphthyridine-2-carboxamide]
INFLUENZA A IC50 [1]: 5.6 mg/L
HSV-1 IC50 [2]: 0.36 mg/L
RV IC50 [3]: < 0.01 mg/L
PARAINFLUENZA CC50 [4]: 2 mg/L
HSV-2 CC50 [5]: 1.9 mg/L
INFLUENZA B CC50 [6]: 5.6 mg/L
ADENOVIRUS IC50 [7]: 4 mg/L
HSV-2 IC50 [8]: 0.19 mg/L
HIVROJO (PBMCs) CC50 [9]: 6.0 mg/L
HIVTEKI (PBMCs) IC50 [10]: 0.3 mg/L
PARAINFLUENZA IC50 [11]: 4 mg/L
RSV IC50 [12]: 4 mg/L
RSV CC50 [13]: 3 mg/L
HIVROJO (PBMCs) IC50 [14]: 4.1 mg/L
INFLUENZA A CC50 [15]: 5.6 mg/L
HSV-1 CC50 [16]: 3.2 mg/L
INFLUENZA B IC50 [17]: 3.2 mg/L
RV CC50 [18]: 4 mg/L

COc1ccccc1CNC(=O)C1=Cc2ccncc2CC1 [#32, 7,8-dihydroisoquinolin-6-carboxylic acid 2′-methoxybenzylamide]
INFLUENZA A IC50 [1]: 60 mg/L
ADENOVIRUS CC50 [19]: 80 mg/L
HSV-1 IC50 [2]: 5.5 mg/L
RV IC50 [3]: 10 mg/L
PARAINFLUENZA CC50 [4]: 20 mg/L
HSV-2 CC50 [5]: 29.0 mg/L
ADENOVIRUS IC50 [7]: > 100 mg/L
HSV-2 IC50 [8]: 15 mg/L
HIVROJO (PBMCs) CC50 [9]: >64 mg/L
HIVTEKI (PBMCs) CC50 [9]: >64 mg/L
RSV IC50 [12]: 50 mg/L
RSV CC50 [13]: 30 mg/L
HIVROJO (PBMCs) IC50 [14]: 45 mg/L
INFLUENZA A CC50 [15]: 67 mg/L
HSV-1 CC50 [16]: 14 mg/L
INFLUENZA B IC50 [17]: 56 mg/L
RV CC50 [18]: 25 mg/L

CC(C)Oc1ccccc1NC(=O)Nc1ccc2cnccc2n1 [#46, 1-(2-iso-propoxy-phenyl)-3-[1,6]naphthyridin-2-yl-urea;]
INFLUENZA A IC50 [1]: >32 mg/L
ADENOVIRUS CC50 [19]: > 30 mg/L
HSV-1 IC50 [2]: >100 mg/L
RV IC50 [3]: 1 mg/L
PARAINFLUENZA CC50 [4]: 30 mg/L
INFLUENZA B CC50 [6]: > 22 mg/L
ADENOVIRUS IC50 [7]: > 30 mg/L
HIVROJO (PBMCs) CC50 [9]: >100 mg/L
HIVTEKI (PBMCs) CC50 [9]: >100 mg/L
HIVTEKI (PBMCs) IC50 [10]: 4.3 mg/L
PARAINFLUENZA IC50 [11]: > 30 mg/L
RSV IC50 [12]: >30 mg/L
RSV CC50 [13]: 30 mg/L
HIVROJO (PBMCs) IC50 [14]: 3.2 mg/L
INFLUENZA A CC50 [15]: 19 mg/L
HSV-1 CC50 [16]: >100 mg/L
INFLUENZA B IC50 [17]: > 32 mg/L
RV CC50 [18]: > 30 mg/L

COc1ccccc1CNC(=O)c1nc2ccncc2s1 [#59, Thiazolo[5,4-c]pyridine-2-carboxylic acid-2-methoxybenzylamide]
HCMV IC50 [20]: ˜10 μg/ml

C[C@H](NC(=O)c1nc2ccncc2s1)c1ccccc1 [#62, Thiazolo[5,4-c]pyridine-2-carboxylic acid(1(S)-phenyl-ethyl)amide]
HCMV IC50 [20]: ˜1 μg/ml
